Some test systems named below: Staphylococcus aureus; Bacillus subtilis; Escherichia coli; Salmonella typhimurium; Acinetobacter baumannii; Klebsiella pneumoniae.
Holding throughout (test): ≥ marks a high value that may be exact or a test limit, other limits are often not marked, values filed in µg/mL are converted to µM
Test [1] concerns Escherichia coli ATCC 25922.
For test [2], the system named is Staphylococcus aureus ATCC 33591.
Test [3] relates to Pseudomonas aeruginosa PAO1.
The subject of test [4] is Klebsiella pneumoniae ATCC 13883.
In test [5] the test system is Staphylococcus aureus USA 300.
Test [6] concerns Pseudomonas aeruginosa KCTC 1637.
Test [7] concerns Bacillus subtilis KCTC 3068.
In test [8] the test system is Salmonella typhimurium KCTC 1926.
In test [9] the test system is Escherichia coli KCTC 1682.
Test [10] deals with Staphylococcus epidermidis KCTC 1917.
Test [11] deals with Staphylococcus aureus KCTC 1621.
The subject of test [12] is Staphylococcus aureus ATCC 25923.
In test [13] the test system is Salmonella enterica subsp. enterica serovar Typhimurium ATCC 14028.
Test [14] has as its system Acinetobacter baumannii ATCC 19606.

Values after ≈ are worked out from the molar mass of the structure shown. Values joined by “and” are separate entries in the source; they are usually repeats but may differ in a detail not shown here. Equal entries are not always repeated.

The term MIC denotes the smallest concentration in the dilution series that meets the test's criterion for growth inhibition. A low value points to a more susceptible organism. In the case of `CSCC[C@H](NC(=O)[C@H](CCCN=C(N)N)NC(=O)[C@H](CCCN=C(N)N)NC(=O)[C@H](CC(N)=O)NC(=O)[C@H](CCC(N)=O)NC(=O)[C@@H](N)Cc1ccccc1)C(=O)N[C@@H](CCCCN)C(=O)N[C@@H](Cc1c[nH]c2ccccc12)C(=O)N[C@@H](CCCCN)C(=O)N[C@@H](CCCCN)C(N)=O` [FQNRRMKWKK], the MIC in test [1] is more than 256 µM; in [2], not below 256 µM.

On to `CC(C)C[C@H](NC(=O)[C@H](CC(C)C)NC(=O)[C@H](CCCCN)NC(=O)CNC(=O)[C@H](CC(C)C)NC(=O)[C@H](CC(C)C)NC(=O)[C@H](CC(C)C)NC(=O)[C@H](CC(C)C)NC(=O)[C@H](CO)NC(=O)[C@H](CO)NC(=O)[C@H](CC(C)C)NC(=O)[C@H](CC(C)C)NC(=O)CN)C(N)=O` [GLLSSLLLLGKLL], for which the MIC is more than 25 µM in test [3], more than 25 µM in [1], 25 µM (≈ 33.5 µg/mL) in [4] and 3.1 µM (≈ 4.15 µg/mL) in [5].

`CC[C@H](C)[C@H](NC(=O)[C@H](CCCN=C(N)N)NC(=O)[C@@H](NC(=O)[C@@H](NC(=O)[C@@H](NC(=O)CN)C(C)C)C(C)C)C(C)C)C(=O)NCC(=O)N[C@@H](CCCN=C(N)N)C(=O)N[C@H](C(=O)N[C@H](C(=O)N[C@H](C(=O)N[C@@H](CCCN=C(N)N)C(=O)NCC(=O)N[C@H](C(=O)N[C@@H](CCCN=C(N)N)C(=O)N[C@@H](CCCN=C(N)N)C(N)=O)C(C)C)C(C)C)[C@@H](C)CC)C(C)C` [GVVVRIGRVIVRGVRR]: the MIC amounted to 8 µM (≈ 14.3 µg/mL) in the test on Staphylococcus aureus, 4 µM (≈ 7.16 µg/mL) against Bacillus subtilis, 8 µM (≈ 14.3 µg/mL) with Escherichia coli and 4 µM (≈ 7.16 µg/mL) against Salmonella typhimurium.

Consider `CC[C@H](C)[C@H](N)C(=O)NCC(=O)N[C@@H](CCCCN)C(=O)N[C@@H](CC(C)C)C(=O)N[C@@H](Cc1ccccc1)C(=O)N[C@@H](CCCCN)C(=O)N[C@@H](CCCN=C(N)N)C(=O)N[C@H](C(=O)N[C@H](C(=O)N[C@@H](CCCCN)C(=O)N[C@@H](CCCN=C(N)N)C(=O)N[C@H](C(=O)N[C@@H](CC(C)C)C(=O)N[C@@H](CCCCN)C(=O)N[C@@H](Cc1ccccc1)C(=O)N[C@@H](CC(C)C)C(=O)N[C@@H](CCCN=C(N)N)C(=O)N[C@@H](CCCCN)C(=O)N[C@@H](CC(C)C)C(=O)O)[C@@H](C)CC)C(C)C)[C@@H](C)CC` [IGKLFKRIVKRILKFLRKL], for which the MIC in [6] was determined as 8 µM (≈ 19 µg/mL); in test [7], 2 µM (≈ 4.74 µg/mL); in test [8], 4 µM (≈ 9.48 µg/mL); in [9], 8 µM (≈ 19 µg/mL); in [10] it was 4 µM (≈ 9.48 µg/mL); in test [11] it was 4 µM (≈ 9.48 µg/mL).

On to `CC(C)C[C@H](NC(=O)[C@H](CC(C)C)NC(=O)[C@H](CCCCN)NC(=O)[C@H](CC(C)C)NC(=O)CNC(=O)[C@H](CC(C)C)NC(=O)[C@H](CO)NC(=O)[C@H](CC(C)C)NC(=O)[C@H](CC(C)C)NC(=O)[C@H](CO)NC(=O)CNC(=O)[C@H](CC(C)C)NC(=O)[C@@H](N)CC(C)C)C(N)=O` [LLGSLLSLGLKLL], for which the MIC is more than 25 µM in test [3], more than 25 µM in [1], 25 µM (≈ 33.5 µg/mL) in test [4] and 1.6 µM (≈ 2.14 µg/mL) in test [5].

For the compound `CC[C@H](C)[C@H](NC(=O)[C@H](CC(C)C)NC(=O)[C@@H](N)CC(C)C)C(=O)N[C@H](C(=O)N[C@@H](CC(C)C)C(=O)N[C@@H](CCCCN)C(=O)N[C@@H](CCCCN)C(=O)N[C@@H](CCCCN)C(=O)N[C@@H](Cc1c[nH]c2ccccc12)C(=O)N[C@@H](CCCCN)C(=O)N[C@@H](CCCCN)C(=O)N[C@@H](CCC(N)=O)C(=O)N[C@@H](C)C(=O)N[C@@H](CCCCN)C(=O)N[C@@H](C)C(=O)N[C@@H](CCCCN)C(=O)N[C@@H](CO)C(=O)N[C@@H](CCCCN)C(N)=O)[C@@H](C)CC` [LLIILKKKWKKQAKAKSK], the MIC in test [6] came to 8 µM (≈ 17.2 µg/mL); in test [7], 4 µM (≈ 8.61 µg/mL); in [8], 4 µM (≈ 8.61 µg/mL); in test [9] it was 8 µM (≈ 17.2 µg/mL); in test [10], 8 µM (≈ 17.2 µg/mL); in test [11], 4 µM (≈ 8.61 µg/mL).

On to `CC[C@H](C)[C@H](NC(=O)[C@H](CC(C)C)NC(=O)[C@@H](N)CC(C)C)C(=O)N[C@H](C(=O)N[C@@H](CC(C)C)C(=O)N[C@@H](CCCN=C(N)N)C(=O)N[C@@H](CCCN=C(N)N)C(=O)N[C@@H](CCCN=C(N)N)C(=O)N[C@@H](Cc1c[nH]c2ccccc12)C(=O)N[C@@H](CCCN=C(N)N)C(=O)N[C@@H](CCCCN)C(=O)N[C@@H](CCC(N)=O)C(=O)N[C@@H](C)C(=O)N[C@@H](CCCN=C(N)N)C(=O)N[C@@H](C)C(=O)N[C@@H](CCCN=C(N)N)C(=O)N[C@@H](CO)C(=O)N[C@@H](CCCCN)C(N)=O)[C@@H](C)CC` [LLIILRRRWRKQARARSK], for which the MIC in test [6] came out at 8 µM (≈ 18.6 µg/mL); in test [7], 4 µM (≈ 9.28 µg/mL); in [8], 4 µM (≈ 9.28 µg/mL); in [9], 8 µM (≈ 18.6 µg/mL); in test [10] it was 8 µM (≈ 18.6 µg/mL); in test [11], 4 µM (≈ 9.28 µg/mL).

On to `CC[C@H](C)[C@H](NC(=O)[C@H](CC(C)C)NC(=O)[C@@H](N)CC(C)C)C(=O)N[C@H](C(=O)N[C@@H](CC(C)C)C(=O)N[C@@H](CCCN=C(N)N)C(=O)N[C@@H](CCCN=C(N)N)C(=O)N[C@@H](CCCN=C(N)N)C(=O)N[C@@H](Cc1c[nH]c2ccccc12)C(=O)N[C@@H](CCCN=C(N)N)C(=O)N[C@@H](CCCN=C(N)N)C(=O)N[C@@H](CCC(N)=O)C(=O)N[C@@H](C)C(=O)N[C@@H](CCCN=C(N)N)C(=O)N[C@@H](C)C(=O)N[C@@H](CCCN=C(N)N)C(=O)N[C@@H](CO)C(=O)N[C@@H](CCCN=C(N)N)C(N)=O)[C@@H](C)CC` [LLIILRRRWRRQARARSR], for which the minimal inhibitory concentration (MIC) in test [6] was found to be 8 µM (≈ 19 µg/mL); in [7], 4 µM (≈ 9.5 µg/mL); in [8], 4 µM (≈ 9.5 µg/mL); in test [9], 8 µM (≈ 19 µg/mL); in [10], 8 µM (≈ 19 µg/mL); in [11], 4 µM (≈ 9.5 µg/mL).

Regarding `CC(C)C[C@H](NC(=O)[C@H](CCCN=C(N)N)NC(=O)[C@H](CCCN=C(N)N)NC(=O)[C@H](C)NC(=O)[C@H](Cc1c[nH]c2ccccc12)NC(=O)CNC(=O)[C@H](CCCN=C(N)N)NC(=O)[C@@H](N)CCCN=C(N)N)C(=O)N[C@@H](C)C(=O)N[C@@H](Cc1ccccc1)C(=O)N[C@@H](C)C(=O)N[C@@H](Cc1ccccc1)C(=O)N[C@@H](C)C(=O)N[C@@H](Cc1ccccc1)C(=O)NCC(=O)N[C@@H](CCCN=C(N)N)C(=O)N[C@@H](CCCN=C(N)N)C(N)=O` [RRGWARRLAFAFAFGRR], the MIC in test [3] is 2.5 µM and 5.2 µM; in [4] it was 2.6 µM (≈ 5.44 µg/mL); in [12] it was 26.3 µM and 30 µM; in test [13], 1.5 µM (≈ 3.14 µg/mL); in test [14] it was 6.2 µM (≈ 13 µg/mL).

In the case of `CC(C)C[C@H](NC(=O)[C@H](CCCN=C(N)N)NC(=O)[C@H](CCCN=C(N)N)NC(=O)[C@H](C)NC(=O)[C@H](Cc1c[nH]c2ccccc12)NC(=O)CNC(=O)[C@H](CCCN=C(N)N)NC(=O)[C@@H](N)CCCN=C(N)N)C(=O)N[C@H](C(=O)N[C@@H](Cc1ccccc1)C(=O)N[C@@H](C)C(=O)N[C@@H](Cc1ccccc1)C(=O)NCC(=O)N[C@@H](CCCN=C(N)N)C(=O)N[C@@H](CCCN=C(N)N)C(N)=O)C(C)C` [RRGWARRLVFAFGRR], the MIC against Acinetobacter baumannii was 3.2 µM (≈ 6.09 µg/mL); in test [1] it was 15.1 µM and 26.6 µM; in [4], 30 µM (≈ 57.1 µg/mL); in test [12], more than 30 µM; against Klebsiella pneumoniae it was 1.3 µM (≈ 2.47 µg/mL).

Take `CC[C@H](C)[C@H](NC(=O)[C@H](Cc1c[nH]c2ccccc12)NC(=O)[C@H](CCCN=C(N)N)NC(=O)[C@@H](NC(=O)[C@@H](NC(=O)[C@H](CCCN=C(N)N)NC(=O)[C@H](CCCCN)NC(=O)[C@@H](N)Cc1c[nH]c2ccccc12)[C@@H](C)CC)C(C)C)C(=O)N[C@@H](CCCCN)C(=O)N[C@@H](CCCN=C(N)N)C(=O)N[C@@H](Cc1c[nH]c2ccccc12)C(=O)N[C@@H](CC(C)C)C(=O)N[C@@H](CCCN=C(N)N)C(N)=O` [WKRIVRWIKRWLR]: the minimal inhibitory concentration (MIC) turned out to be 4 µM (≈ 7.58 µg/mL) in test [6]; 4 µM (≈ 7.58 µg/mL) in test [7]; 4 µM (≈ 7.58 µg/mL) in test [8]; 8 µM (≈ 15.2 µg/mL) in test [9]; 8 µM (≈ 15.2 µg/mL) in test [10]; 2 µM (≈ 3.79 µg/mL) in [11].

For the origin of these results see DBAASP.
